Test results from patent publication US9073895B2 (Boehringer Ingelheim International GmbH, priority 2010, dated 2015).

Experiments:
[1] = target: T1, recombinant human FLAP protein (Homo sapiens, UniProt P20292); assay: FLAP binding assay (SPA, displacement of [125I]L-691,831); settings: membranes of sf9 cells expressing human FLAP, [125I]L-691,831 probe; read-out: hFLAP binding IC50
T1 construct: made in house; host or cells: Sf9 insect cells (membrane fraction, 100,000 x g pellet)
T1 sequence (P20292 1-161): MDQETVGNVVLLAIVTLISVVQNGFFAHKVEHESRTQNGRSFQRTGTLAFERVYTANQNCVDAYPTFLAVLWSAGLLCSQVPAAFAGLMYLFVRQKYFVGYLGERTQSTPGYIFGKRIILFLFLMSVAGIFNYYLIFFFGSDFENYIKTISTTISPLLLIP
Outline: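 Membranes from sf9 cells expressing human FLAP (5 μg/well) were bound to WGA SPA beads (200 μg/well). Nonspecific binding was defined with 10 μM unlabelled L-691,831.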

[2] = system: synthesis of LTB4 in human whole blood; assay: Human whole blood LTB4 production inhibition assay; assay type: cell-based; settings: heparinized human whole blood, calcimycin 20 μM, plasma LTB4; read-out: HuWB IC50
Outline: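 Readout: plasma LTB4 by antibody-based HTRF. Compound added to heparinized human whole blood, 15 min 37° C; calcimycin 20 μM final (PBS pH 7.4), 30 min 37° C; spun 1500×g 5 min, plasma taken.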

SMILES	IC50 [1] [nM]	IC50 [2] [nM]
Nc1ncc(-c2ccc(C3(C(=O)Nc4ccc(-c5cscn5)cn4)CCOCC3)cc2)cn1 [Example 143, 4-[4-(2-aminopyrimidin-5-yl)phenyl]-N-[5-(1,3-thiazol-4-yl)pyridin-2-yl]tetrahydro-2H-pyran-4-carboxamide]	17.1	646
Nc1ncc(-c2ccc(C3(C(=O)Nc4ccc(N5CCOCC5)cc4)CCOCC3)cc2)cn1 [Example 147, 4-[4-(2-aminopyrimidin-5-yl)phenyl]-N-[4-(mopholin-4-yl)phenyl]tetrahydro-2H-pyran-4-carboxamide]	490	2900
Nc1ncc(-c2ccc(C3(C(=O)Nc4ccc(CN5CCS(=O)(=O)CC5)cc4)CCOCC3)cc2)cn1 [Example 148, 4-[4-(2-aminopyrimidin-5-yl)phenyl]-N-{4-[(1,1-dioxidothiomorpholin-4-yl)methyl]phenyl}tetrahydro-2H-pyran-4-carboxamide]	360	3980
Nc1ncc(-c2ccc(C3(C(=O)Nc4ccc(N5CCCCC5)cc4)CCOCC3)cc2)cn1 [Example 149, 4-[4-(2-aminopyrimidin-5-yl)phenyl]-N-[4-(piperidin-1-yl)phenyl]tetrahydro-2H-pyran-4-carboxamide]	260	1460
CC(C)(C)OC(=O)N1CCc2cc(NC(=O)C3(c4ccc(-c5cnc(N)nc5)cc4)CCOCC3)ccc2C1 [Example 150, tert-butyl 6-[({4-[4-(2-aminopyrimidin-5-yl)phenyl]tetrahydro-2H-pyran-4-yl}carbonyl)amino]-3,4-dihydroisoquinolin-2(1H)-carboxylate]	48	3590
Cc1nc(-c2ccc(NC(=O)C3(c4ccc(-c5cnc6[nH]ccc6c5)cc4)CCOCC3)nc2)cs1 [Example 151, N-[5-(2-methyl-1,3-thiazol-4-yl)pyridin-2-yl]-4-[4-(1H-pyrrolo[2,3-b]pyridin-5-yl)phenyl]tetrahydro-2H-pyran-4-carboxamide]	2.1	200
Cc1nc(-c2ccc(NC(=O)C3(c4ccc(-c5cnc(N)c(C)c5)cc4)CCOCC3)nc2)cs1 [Example 152, 4-[4-(6-amino-5-methylpyridin-3-yl)phenyl]-N-[5-(2-methyl-1,3-thiazol-4-yl)pyridin-2-yl]tetrahydro-2H-pyran-4-carboxamide]	34.5	896
Cc1nc(-c2ccc(NC(=O)C3(c4ccc(-c5cnc6c(c5)CCN6)cc4)CCOCC3)nc2)cs1 [Example 153, 4-[4-(2,3-dihydro-1H-pyrrolo[2,3-b]pyridin-5-yl)phenyl]-N-[5-(2-methyl-1,3-thiazol-4-yl)pyridin-2-yl]tetrahydro-2H-pyran-4-carboxamide]	7.8	509
Nc1ncc(-c2ccc(C3(C(=O)Nc4ccc(-n5ccnc5)cc4)CCOCC3)cc2)cn1 [Example 154, 4-[4-(2-aminopyrimidin-5-yl)phenyl]-N-[4-(1H-imidazol-1-yl)phenyl]tetrahydro-2H-pyran-4-carboxamide]	63.3	1370
COc1ccc(-c2ccc(NC(=O)C(C)(c3ccc(-c4cnc5[nH]ccc5c4)cc3)C(C)C)nc2)cn1 (stereo not drawn) [Example 166, N-(6'-methoxy-3,3'-bipyridin-6-yl)-2,3-dimethyl-2-[4-(1H-pyrolo[2,3-b]pyridin-5-yl)phenyl]butanamide]	3	332
COc1cncc(-c2ccc(NC(=O)C3(c4ccc(-c5cnc6[nH]ccc6c5)cc4)CCOCC3)nc2)c1 [Example 167, N-(5'-methoxy-3,3'-bipyridin-6-yl)-4-[4-(1H-pyrrolo[2,3-b]pyridin-5-yl)phenyl]tetrahydro-2H-pyran-4-carboxamide]	4.7	354
COc1ccc(-c2ccc(NC(=O)C3(c4ccc(-c5cnc6[nH]ccc6c5)cc4)CCOCC3)nc2)cn1 [Example 168, N-(6'-methoxy-3,3'-bipyridin-6-yl)-4-[4-(1H-pyrrolo[2,3-b]pyridin-5-yl)phenyl]tetrahydro-2H-pyran-4-carboxamide]	7.95	616
COc1ccc(-c2ccc(NC(=O)C3(c4ccc(-c5cnc(N)c(CO)c5)cc4)CCOCC3)nc2)cn1 [Example 170]	9.8	894
COc1cncc(-c2ccc(NC(=O)C3(c4ccc(-c5cnc(N)c(CO)c5)cc4)CCOCC3)nc2)c1 [Example 171, 4-{4-[6-amino-5-(hydroxymethyl)pyridin-3-yl]phenyl}-N-(5'-methoxy-3,3'-bipyridin-6-yl)tetrahydro-2H-pyran-4-carboxamide]	2.05	566
O=C(Nc1ccc(Oc2ccccc2)cn1)C1(c2ccc(-c3cnc4[nH]ccc4c3)cc2)CCOCC1 [Example 174, N-(5-phenoxypyridin-2-yl)-4-[4-(1H-pyrrolo[2,3-b]pyridin-5-yl)phenyl]tetrahydro-2H-pyran-4-carboxamide]	18.1	686
COc1cncc(-c2ccc(NC(=O)C3(c4ccc(-c5cnc6c(c5)CCN6)cc4)CCOCC3)nc2)c1 [Example 175, 4-[4-(2,3-dihydro-1H-pyrolo[2,3-b]pyridin-5-yl)phenyl]-N-(5'-methoy-3,3'-bipyridin-6-yl)tetrahydro-2H-pyran-4-carboxamide]	22	1280
Cc1nc(-c2ccc(NC(=O)C3(c4ccc(-c5cnc(N)c(CO)c5)cc4)CCOCC3)nc2)cs1 [Example 176, 4-{4-[6-amino-5-(hydroxymethyl)pyridin-3-yl]phenyl}-N-[5-(2-methyl-1,3-thiazol-4-yl)pyridin-2-yl]tetrahydro-2H-pyran-4-carboxamide]	6.65	712

The next lines start with the values.

IC50 [1] [nM]	IC50 [2] [nM]	SMILES
10.3	4690	CC(C)C(C)(C(=O)Nc1ccc(Cl)cn1)c1ccc(-c2cnc(N)nc2)cc1 (stereo not drawn) [Example 136, 2-[4-(2-aminopyrimidin-5-yl)phenyl]-N-(5-chloropyridin-2-yl)-2,3-dimethylbutanamide]
300	11800	Nc1ncc(-c2ccc(C3(C(=O)Nc4ccccn4)CCOCC3)cc2)cn1 [Example 138, 4-[4-(2-aminopyrimidin-5-yl)phenyl]-N-(pyridin-2-yl)tetrahydro-2H-pyran-4-carboxamide]
39	11300	Nc1ncc(-c2ccc(C3(C(=O)Nc4ccc5ccccc5n4)CCOCC3)cc2)cn1 [Example 142, 4-[4-(2-aminopyrimidin-5-yl)phenyl]-N-(quinolin-2-yl)tetrahydro-2H-pyran-4-carboxamide]
66	1590	Cn1cnc(-c2ccc(NC(=O)C3(c4ccc(-c5cnc(N)nc5)cc4)CCOCC3)nc2)c1 [Example 144, 4-[4-(2-aminopyrimidin-5-yl)phenyl]-N-[5-(1-methyl-1H-imidazol-4-yl)pyridin-2-yl]tetrahydro-2H-pyran-4-carboxamide]
11.1	752	COC(=O)c1ccc(NC(=O)C2(c3ccc(-c4cnc(N)nc4)cc3)CCOCC2)nc1 [Example 146, methyl 6-[({4-[4-(2-aminopyrimidin-5-yl)phenyl]tetrahydro-2H-pyran-4-yl}carbonyl)amino]pyridine-3-carboxylate]
136	857	Nc1ncc(-c2ccc(C3(C(=O)Nc4ccncc4)CCOCC3)cc2)cn1 [Example 155, 4-[4-(2-aminopyrimidin-5-yl)phenyl]-N-(pyridin-4-yl)tetrahydro-2H-pyran-4-carboxamide]
36	5270	CC(C)(C(=O)Nc1ccccn1)c1ccc(-c2cnc(N)nc2)cc1 [Example 158, 2-[4-(2-aminopyrimidin-5-yl)phenyl]-2-methyl-N-(pyridin-2-yl)propanamide]
4.1	896	COc1cncc(-c2ccc(NC(=O)C(C)(c3ccc(-c4cnc(N)nc4)cc3)C(C)C)nc2)c1 (stereo not drawn) [Example 162, 2-[4-(2-aminopyrimidin-5-yl)phenyl]-N-(5'-methoxy-3,3'-bipyridin-6-yl)-2,3-dimethylbutanamide]
6.75	404	COc1ccc(-c2ccc(NC(=O)C(C)(c3ccc(-c4cnc(N)nc4)cc3)C(C)C)nc2)cn1 (stereo not drawn) [Example 163, 2-[4-(2-aminopyrimidin-5-yl)phenyl]-N-(6'-methoxy-3,3'-bipyridin-6-yl)-2,3-dimethylbutanamide]
1.9	315	COc1ccc(-c2ccc(NC(=O)C(C)(c3ccc(-c4cnc5c(c4)CCN5)cc3)C(C)C)nc2)cn1 (stereo not drawn) [Example 164, 2-[4-(2,3-dihydro-1H-pyrrolo[2,3-b]pyridin-5-yl)phenyl]-N-(6'-methoxy-3,3'-bipyridin-6-yl)-2,3-dimethylbutanamide]
1.4	354	COc1cncc(-c2ccc(NC(=O)C(C)(c3ccc(-c4cnc5c(c4)CCN5)cc3)C(C)C)nc2)c1 (stereo not drawn) [Example 165, 2-[4-(2,3-dihydro-1H-pyrolo[2,3-b]pyridin-5-yl)phenyl]-N-(5'-methoxy-3,3'-bipyridin-6-yl)-2,3-dimethylbutanamide]
5.25	330	CC(C)C(C)(C(=O)Nc1ccncc1)c1ccc(-c2cnc(N)nc2)cc1 (stereo not drawn) [Example 169, 2-[4-(2-aminopyrimidin-5-yl)phenyl]-2,3-dimethyl-N-(pyridin-4-yl)butanamide]
18	930	Nc1ncc(-c2ccc(C3(C(=O)Nc4ccc(Oc5ccccc5)cn4)CCOCC3)cc2)cn1 [Example 173, 4-[4-(2-aminopyrimidin-5-yl)phenyl]-N-(5-phenoxypyridin-2-yl)tetrahydro-2H-pyran-4-carboxamide]
